SMILES strings stand for the structures. A value given as a limit tells only on which side of the number the result lay.

The values that follow come from patent US5256685A, “Mitomycin derivatives” (Kyowa Hakko Kogyo Co., Ltd., priority 1991, dated 1993).

A short description of one data set: Acute toxicity. The settings on record: mouse, in vivo, iv; i.v. once, ddY mice, observed 14 days; Behrens-Kaerber's method. Here is the method:
A test compound was intravenously injected once to five ddY mice as one group. […] LD50 was calculated from the death rate of each group to which the test compound was administered according to the Behrens-Kaerber's method.

A further data set has as its system Sarcoma 180 solid tumor. The data set is described as follows: Anti-tumor activity to sarcoma 180 solid tumor. It counts as in vivo. To be noted: Mus musculus, Sarcoma-180, iv, 168 h; dose showing T/C=0.5 (tumor volume, 7 days after implantation); single i.v. injection 24 hours after s.c. implantation; male ddY mice. Here is the method: Anti-tumor activity to sarcoma 180 solid tumor
5×10^6 Sarcoma 180 cells were abdominally implanted into a ddY mouse and the cells were collected from the ascites of the mouse 7 days after the implantation. The cells were washed once with a sterilized physiological saline solution and then suspended in a sterilized physiological saline solution to prepare a cell suspension of 5×10^7 cells/ml.
0.1 ml of the cell suspension was subcutaneously implanted into the right axillary space of male ddY mice weighing 20±2 g.
A test compound was dissolved in a physiological saline solution or a polyoxyethylene sorbitan monolaurate-containing physiological saline solution, and 0.1 to 0.2 ml of the solution was intravenously injected to 5 mice as one group 24 hours after the implantation of the tumor cells.
The anti-tumor activity of the test compound was determined by measuring the major axis (a) and the minor axis (b) of the tumor 7 days after the implantation of tumor cells, and the value of (a×b^2 /2), which corresponds to the volume of the tumor, was calculated. The intended anti-tumor activity is represented by a ratio of T/C, in which C indicates the tumor volume of mice of the control group to which no test compound was administered and T indicates the tumor volume of mice of the test group to which the test compound was administered. T/C at each dose given was plotted on the vertical axis and a dose is shown by a logarithmic scale on the horizontal axis. The relationship between the dose and T/C was determined to be a straight line by the least squares method. From the regression formula of the straight line thus obtained, the dose showing T/C=0.5 was calculated to give ED50.

A further data set concerns HeLaS3 cells. The data set is described as follows: Growth inhibition test on HeLaS3 cells. It counts as cell-based. To be noted: Homo sapiens, HeLa S3, 1 h exposure, then 72 h incubation at 37° C., Neutral Red. As to the method:
Growth inhibition test on HeLaS3 cells
HeLaS3 cells were suspended in an MEM medium containing 10% fetal calf serum and 2 mM glutamine at a density of 3×10^4 cells/ml, and 0.1 ml of the cell suspension was put into each well of a 96-well microtiter plate.
After culturing at 37° C. overnight in a carbon dioxide gas incubator, 0.05 ml each of a test compound appropriately diluted with the medium was added to each well. The cells were further cultured for an hour in the carbon dioxide gas incubator, and the culture supernatant was removed. The residue was washed once with a phosphate buffered saline [PBS (-)] and 0.1 ml each of a fresh medium was added to each well. The cells were further incubated at 37° C. for 72 hours in the carbon dioxide gas incubator. After removal of the culture supernatant, 0.1 ml each of the culture medium containing 0.02% Neutral Red was added to each well, and the cells were further incubated at 37° C. for an hour in the carbon dioxide gas incubator to stain the cells.
After removal of the culture supernatant, each well was washed once with a physiological saline, and the dye was extracted with 0.001N HCl/30% ethanol. Absorbance of the extract at 550 nm was measured with a microplate reader. The cell growth inhibition percentage was calculated according to the following equation from the absorbance of the extract of the cells treated with the test compound in various concentrations and that of the untreated cells. [formula]
From the cell growth inhibition percentage thus obtained, the concentration of the test compound which inhibits cell growth by 50%, i.e. IC50 value, was determined.

As usually defined, the LD50 is the dose expected to kill half of the subjects tested. By ED50 is commonly meant the dose that gives a 50% effect, or the effect in half of the subjects. A higher ED50 goes with weaker potency. In general, IC50 refers to the concentration that inhibits the measured activity by half. Read a low IC50 as inhibition by little substance. Take `CO[C@@]12[C@H](COC(N)=O)C3=C(C(=O)C4=C(OC5=C(C4)C(=O)CC(C)(C)C5)C3=O)N1C[C@@H]1N[C@@H]12` [Compound 13]: the LD50 at 336 h in the data set “Acute toxicity” turned out to be 2.9 mg/kg. The ED50 with Sarcoma 180 solid tumor worked out at 1.3 mg/kg. The compound further yielded a half-inhibitory concentration (IC50) in the data set with HeLaS3 cells of 0.084 mM.

As for `CO[C@@]12[C@H](COC(N)=O)C3=C(C(=O)C4=C(OC(C)=C(C(=O)c5ccccc5)C4)C3=O)N1C[C@@H]1N[C@@H]12` [Compound 30], in the data set with Sarcoma 180 solid tumor, the ED50 was determined as 5.8 mg/kg.

As for `CCC1=C(OC)C(=O)C2=C(C1=O)N1C[C@@H]3N[C@@H]3[C@]1(OC)[C@@H]2COC(N)=O` [Compound 15, 6-demethyl-6-ethylmitomycin A], in “Acute toxicity”, the LD50 at 336 h worked out at 8.2 mg/kg. The ED50 in the data set with Sarcoma 180 solid tumor worked out at 2.8 mg/kg.

Take `CO[C@@]12[C@H](COC(N)=O)C3=C(C(=O)C4=C(OC5=C(C4)C(=O)CCC5)C3=O)N1C[C@@H]1N[C@@H]12` [Compound 14]: the LD50 at 336 h in the data set “Acute toxicity” is 2.2 mg/kg. In addition, the ED50 in the data set on Sarcoma 180 solid tumor was found to be 0.84 mg/kg. In the data set with HeLaS3 cells, this compound gave an IC50 of 0.065 mM.

In the data set “Acute toxicity”, `CCC1=C(OC)C(=O)C2=C(C1=O)N1C[C@H]3[C@H](N3C)[C@]1(O)[C@H]2COC(N)=O` (stereo partly drawn) [Compound 16, 6-demethyl-6-ethylmitomycin B] registered a 50% lethal dose (LD50) at 336 h of 25 mg/kg. The compound also showed an ED50 in the data set with Sarcoma 180 solid tumor of 14 mg/kg.

In the data set “Acute toxicity”, `CO[C@@]12[C@H](COC(N)=O)C3=C(C(=O)C(Cc4ccccc4)=C(N)C3=O)N1C[C@@H]1N[C@@H]12` [Compound 7, 6-benzyl-6-demethylmitomycin C] came in with an LD50 at 336 h of more than 50 mg/kg. For the same compound, in the data set on Sarcoma 180 solid tumor, the ED50 amounted to 18 mg/kg. The compound further displayed an IC50 with HeLaS3 cells of 2.3 mM.

In the data set on HeLaS3 cells, `CCOC(=O)C(C)(CC1=C(OC)C(=O)C2=C(C1=O)N1C[C@@H]3N[C@@H]3[C@]1(OC)[C@@H]2COC(N)=O)C(C)=O` (stereo partly drawn) [Compound 10] showed an IC50 of 1.6 mM.

Compound `CO[C@@]12[C@H](COC(N)=O)C3=C(C(=O)C4=C(OC5=C(C4)C(=O)CC(C)C5)C3=O)N1C[C@@H]1N[C@@H]12` (single isomer, unassigned) [Compound 36] registered an LD50 at 336 h in “Acute toxicity” of 4.4 mg/kg. The compound further registered an ED50 with Sarcoma 180 solid tumor of 1.3 mg/kg.

For `CO[C@@]12[C@H](COC(N)=O)C3=C(C(=O)C(CC4=C(O)CC(C)(C)CC4=O)=C(N)C3=O)N1C[C@@H]1N[C@@H]12` [Compound 9], in “Acute toxicity”, the LD50 at 336 h was 30 mg/kg. Also, in the data set on Sarcoma 180 solid tumor, the 50% effective dose (ED50) was found to be 8 mg/kg. The compound also returned a 50% inhibitory concentration (IC50) in the data set on HeLaS3 cells of 1.5 mM.

Take `CO[C@@]12[C@H](COC(N)=O)C3=C(C(=O)C4=C(OC5=C(C4)C(=O)CC(C)C5)C3=O)N1C[C@@H]1N[C@@H]12` (stereo partly drawn) [Compound 37]: in the data set on Sarcoma 180 solid tumor, the ED50 came out at 0.93 mg/kg.

`COc1ccc(C2CC(=O)C3=C(C2)OC2=C(C3)C(=O)C3=C(C2=O)[C@@H](COC(N)=O)[C@@]2(OC)[C@H]4N[C@H]4CN32)cc1` (single isomer, unassigned) [Compound 38] registered an ED50 in the data set with Sarcoma 180 solid tumor of 12 mg/kg.

For `CCOC(=O)C1=C(C)OC2=C(C1)C(=O)C1=C(C2=O)[C@@H](COC(N)=O)[C@@]2(OC)[C@H]3N[C@H]3CN12` [Compound 12], the 50% lethal dose (LD50) at 336 h in the data set “Acute toxicity” was found to be 5.2 mg/kg. In the data set with Sarcoma 180 solid tumor, this compound came in with an ED50 of 0.7 mg/kg.

On to `CCC1=C(N)C(=O)C2=C(C1=O)N1C[C@@H]3N[C@@H]3[C@]1(OC)[C@@H]2COC(N)=O` [Compound 1, 6-demethyl-6-ethylmitomycin C], for which, in the data set “Acute toxicity”, the LD50 at 336 h was 38 mg/kg. This compound came in with an ED50 in the data set on Sarcoma 180 solid tumor of 6.7 mg/kg. In the data set with HeLaS3 cells, this compound came in with an IC50 of 3 mM.
